These results are taken from article PMC7279046, “Discovery of the Novel Inhibitor Against New Delhi Metallo-β-Lactamase Based on Virtual Screening and Molecular Modelling” (International Journal of Molecular Sciences, 2020).

Structures are written as SMILES. Entries after “also recorded” stand apart in the source; their conditions may differ. Like-named read-outs stand apart in the source and are kept apart here. Bounds are passed on as bounds.

Assay [1] concerns E. coli BL21 (pET28a-SP-NDM-1). Nature of the assay: antibacterial activity assay (MIC, broth microdilution; FICI). In kind it is cell-based. The conditions noted are these: for MIC: Escherichia coli; for FICI: FICI ≤ 0.5 denotes synergy. Background: Dilution methods test growth across graded concentrations, often in twofold steps.
Assay [2] deals with T1, NDM-1 (Klebsiella pneumoniae, UniProt C7C422).
T1 construct: made in house; host or cells: E. coli BL21 (DE3)
T1 sequence (C7C422 29-270 limits assumed): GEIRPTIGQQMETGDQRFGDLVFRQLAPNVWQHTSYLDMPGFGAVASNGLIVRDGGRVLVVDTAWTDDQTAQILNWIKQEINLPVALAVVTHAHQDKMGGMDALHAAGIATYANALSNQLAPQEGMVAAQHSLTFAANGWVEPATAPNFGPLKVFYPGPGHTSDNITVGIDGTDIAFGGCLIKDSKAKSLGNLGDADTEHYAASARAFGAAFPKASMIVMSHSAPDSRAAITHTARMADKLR
The assay is described as follows: nitrocefin assay (hydrolysis by purified NDM-1). Format: biochemical. As to the method: The inhibitory activities of 18 compounds against NDM-1 were tested by nitrocefin assay. The purified NDM-1 was incubated with drugs and nitrocefin, then the absorbance values of OD492nm were determined as the nitrocefin hydrolysis. […]
collected for the subsequent protein purification as described by Liu et.al. […]
further determination of the inhibitory effect of ZINC05683641 on the hydrolysis activities of NDM-1. The initial identifying of NDM-1 inhibitory activities was carried out on the […]
serves as an indicator whose colour changes from yellow to red with increased hydrolysis.
(§1) NDM-1 were incubated with various concentrations of inhibitor (0, 4, 8, 16, 32, 64 μg/mL) in phosphate buffer (pH = 7.4) at room temperature for 20 minutes, and then, 25 μL of nitrocefin was added to the mixture. After 10 minutes of incubation, the samples were read at OD492nm to determine the level of nitrocefin hydrolysis. […]

Assay [3] has as its target T2, W93A-NDM-1 (Klebsiella pneumoniae, UniProt C7C422, W93A). The assay is described as follows: fluorescence-quenching assay, W93A. In kind it is binding. As for the experimental part:
(§2) Furthermore, this competitive inhibition mechanism was verified by fluorescence quenching method. In previous literature, fluorescence quenching method are extensively used in the interaction mechanism research between ligand and protein. The binding constants of NDM-1 with ZINC05683641 were measured by fluorescence quenching method in this research. […] It is believed that the 3D structure of NDM-1-ZINC05683641 complex is reliable by MD simulation, and residues of ILE-35, MET-67, VAL-73, TRP-93, CYS-208, ASN-220 and HIS-250 played crucial roles in the binding of ZINC05683641 to NDM-1. […]
(§3) Fluorescence-quenching assay
(§4) According to Dong et al., Niu et al. and Qiu et al., the binding constants (KA) of WT-NDM-1 and two mutants NDM-1 with inhibitor were measured using the fluorescence-quenching […]
(§5) Site-Directed Mutagenesis
(§6) The recombinant plasmid pET28a-NDM-1 was constructed according to previous reports encoding WT-NDM-1. Plasmids encoding W93A-NDM-1 or H250A-NDM-1 were constructed by using a QuikChange site-directed mutagenesis kit. The template plasmid was the pET28a-NDM-1 plasmid, as noted above.
(§7) Expression and puriﬁcation of WT-PLY and mutants
(§8) Plasmids harboring the coding sequences for WT-NDM-1, W93A-NDM-1, and H250A-NDM-1 were transformed into E. coli BL21 (DE3). […]

For assay [4], the target named is T3, H250A-NDM-1 (Klebsiella pneumoniae, UniProt C7C422, H250A). The assay is described as follows: nitrocefin assay with mutant H250A. Format: biochemical. To be noted: 4-64 μg/mL. As to the method:
(§9) Subsequently, the inhibitory activity of ZINC05683641 against mutants was tested by the nitrocefin assays. […] The findings indicate that due to the mutation of residues in the binding sites, the binding affinity of ZINC05683641 with NDM-1 decreased, leading to a loss of inhibitory activity. […]
as §5, §6, §7
(§10) Plasmids harboring the coding sequences for WT-NDM-1, W93A-NDM-1, and H250A-NDM-1 were transformed into E. coli BL21 (DE3). The E. coli strain was cultured in 1,000 mL of LB broth supplemented with 50 μg mL–1 kanamycin until the OD 600 nm of the cultures reached 0.6–0.8.
(§11) Protein expression was induced by using 0.3 mM IPTG for 12 h at 16 °C. The cells were harvested and washed once with sterile PBS. […]
as §1

For assay [5], the target named is T2, W93A-NDM-1. Nature of the assay: nitrocefin assay with mutant W93A. In kind it is biochemical. The conditions noted are these: 4-64 μg/mL. As for the experimental part:
as §9, §5, §6, §7, §10, §11, §1

For the next assay, the target named is T4, WT-NDM-1 (Klebsiella pneumoniae, UniProt C7C422).
T4 construct: made in house; host or cells: E. coli BL21 (DE3)
T4 sequence (C7C422 29-270 limits assumed): as above
Nature of the assay: fluorescence-quenching assay, WT. In kind it is binding. As for the experimental part:
as §2, §3, §4, §5, §6, §7, §8

Assay [6] addresses T3, H250A-NDM-1. The assay is described as follows: fluorescence-quenching assay, H250A. Format: binding. As to the method:
as §2, §3, §4, §5, §6, §7, §8

The target of assay [7] is T1, NDM-1. The conditions noted are these: cited from earlier work.
The mark [8] stands for this setting: IC50, nitrocefin hydrolysis, OD492nm, mean ± SD, n = 3.
The mark [9] stands for this setting: IC50 (not available; inhibitory activity at 1 mM), initial test at a concentration of 1 mM.

T2 sequence (C7C422 29-270 W93A): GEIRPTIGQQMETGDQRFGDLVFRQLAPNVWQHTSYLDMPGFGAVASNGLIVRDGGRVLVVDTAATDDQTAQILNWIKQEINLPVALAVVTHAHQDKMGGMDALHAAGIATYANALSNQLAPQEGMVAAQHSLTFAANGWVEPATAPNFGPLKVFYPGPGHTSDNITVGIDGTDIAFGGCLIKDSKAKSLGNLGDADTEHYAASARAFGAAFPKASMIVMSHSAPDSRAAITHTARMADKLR
T3 sequence (C7C422 29-270 H250A): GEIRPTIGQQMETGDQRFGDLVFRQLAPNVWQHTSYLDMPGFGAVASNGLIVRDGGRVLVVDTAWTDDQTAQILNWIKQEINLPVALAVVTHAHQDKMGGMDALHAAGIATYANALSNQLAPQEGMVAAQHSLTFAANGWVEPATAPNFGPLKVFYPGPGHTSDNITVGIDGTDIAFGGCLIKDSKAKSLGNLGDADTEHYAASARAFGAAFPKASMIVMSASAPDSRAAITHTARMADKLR

Take `C[C@@H](O)[C@H]1C(=O)N2C(C(=O)O)=C(S[C@@H]3CN[C@H](C(=O)N(C)C)C3)[C@H](C)[C@H]12` [Meropenem]: the “MIC of meropenem in combination” value in assay [1] (+64 μg/mL ZINC05683641) and in assay [1] (+128 μg/mL ZINC05683641) was 8 µg/mL throughout. Moreover, the MIC in assay [1] was 32 µg/mL. The “reduction of the MICs of meropenem” value in assay [1] (addition of ZINC05683641 at 64 and 128 μg/mL) is “fourfold”. The FICI in assay [1] (meropenem +64 μg/mL ZINC05683641) is 0.375; in assay [1] (meropenem +128 μg/mL ZINC05683641) it was 0.50; in assay [1] (meropenem +128 μg/mL ZINC05683641, listed as meropenem), 0.500. On NDM-1 [2] (setting [8]), `Cc1ccc(N2C(=O)c3ccc(C(=O)c4ccc5c(c4)C(=O)N(c4ccc(C)cc4C)C5=O)cc3C2=O)c(C)c1` [ZINC00639379] gave an IC50 of 207 ± 15.5 µM. Same read-out and setting: the result for `O=c1oc2cc(OCc3ccc(Cl)c(Cl)c3)ccc2cc1-c1nc2ccccc2s1` [ZINC01799114] reads > 300 µM; that for `Cc1ccc(N2C(=O)c3ccc(C(=O)c4ccc5c(c4)C(=O)N(c4ccc(C)cc4C)C5=O)cc3C2=O)c(C)c1` [ZINC02079077], 108 ± 5.64 µM; that for `Cc1ccc(-c2cc(C(=O)Oc3ccc([N+](=O)[O-])cc3)c3cc(C)ccc3n2)cc1` [ZINC02577071], > 300 µM. On to `Cc1ccc(S(=O)(=O)ON2C(=O)c3cccc4cccc(c34)C2=O)cc1` [ZINC02938448], for which, on NDM-1 [2] (setting [8]), the IC50 was > 300 µM. For `O=C1c2cccc3cccc(c23)C(=O)N1OS(=O)(=O)c1ccc(Cl)cc1` [ZINC02953923], at NDM-1 [2] (setting [8]), the IC50 is > 300 µM.

For `Cc1ccc(S(=O)(=O)Nc2cccc3cccc(NS(=O)(=O)c4ccc(C)cc4)c23)cc1` [ZINC03198432], the IC50 against NDM-1 [2] (setting [8]) was > 300 µM. Turning to `O=C(N[C@@H](Cc1ccc2ccccc2c1)C(=O)O)OCC1c2ccccc2-c2ccccc21` [ZINC04218138], at NDM-1 [2] (setting [9]), the IC50 is > 1000 µM. Regarding `COc1ccc2c3c(cccc13)C(=O)N(OS(=O)(=O)c1ccc(C)cc1)C2=O` [ZINC05683641], on NDM-1 [2] (setting [8]), the IC50 worked out at 13.6 ± 0.52 µM. Also, on NDM-1 [2] (final concentrations of 4, 8, 16, 32 and 64 μg/mL), the “hydrolysis activity of nitrocefin by WT-NDM-1” value is “reduced”. Further, the inhibition at 16 µM at NDM-1 [2] (read-out: inhibition rate) was > 50%. Moreover, the Kd is 3.28 µM at W93A-NDM-1 [3], 2.4 µM on WT-NDM-1 and 4.65 µM at H250A-NDM-1 [6]. In addition, the “binding constant KA” value at W93A-NDM-1 [3] (W93A, fluorescence spectroscopy quenching, mean ± SD, n = 3) was 3.05 ± 0.83 1 × 10^5 L mol^−1; at H250A-NDM-1 [6] (H250A, fluorescence spectroscopy quenching, mean ± SD, n = 3), 2.15 ± 0.88 1 × 10^5 L mol^−1. For the same molecule, the “inhibition of H250A hydrolysis activity” value against H250A-NDM-1 [4] is recorded as “almost no inhibition; also recorded: did not lead to inhibitory effects”. The “inhibition of W93A hydrolysis activity” value against W93A-NDM-1 [5] is on record as “almost no inhibition; also recorded: did not lead to inhibitory effects”. The MIC in assay [1] was > 512 µg/mL. The “inhibition of cell growth” value in assay [1] (inhibitor alone, 512 μg/mL) is “did not inhibit cell growth”. In the case of `C[C@H]1CCc2cc(F)cc3c(=O)c(C(=O)NCc4ccccc4Cl)c(O)n1c23` [ZINC06166781], at NDM-1 [2] (setting [8]), the IC50 is > 300 µM. As to `Cc1ccc(-c2cc(C(F)(F)F)c3c(N)c(C(=O)c4ccccc4)sc3n2)cc1` [ZINC06421319], the IC50 at NDM-1 [2] (setting [9]) was > 1000 µM. As for `Cc1ccc(S(=O)(=O)N[C@@H](C(=O)Oc2ccc3c4c(c(=O)oc3c2)CCCC4)c2ccccc2)cc1` [ZINC11865709], at NDM-1 [2] (setting [8]), the IC50 was > 300 µM.

For the molecule `O=[N+]([O-])c1cccc(S(=O)(=O)N2CN(c3ccc4ccccc4c3)c3nc4ccccc4nc32)c1` [ZINC12524283], the IC50 at NDM-1 [2] (setting [8]) was > 300 µM.

Regarding `O=C1C(=Cc2cccc(Cl)c2)CN(Cc2ccccc2)CC1=Cc1cccc(Cl)c1` [ZINC20115378], at NDM-1 [2] (setting [8]), the IC50 was > 300 µM. `Cc1ccccc1S(=O)(=O)ON1C(=O)c2cccc3cc(S(=O)(=O)N(C)C)cc(c23)C1=O` [ZINC25558269]: the 50% inhibitory concentration (IC50) on NDM-1 [2] (setting [9]) was > 1000 µM. Consider `O=C1c2cccc3c(Br)ccc(c23)C(=O)N1OS(=O)(=O)c1ccc(Cl)cc1` [ZINC25558273], for which the IC50 on NDM-1 [2] (setting [8]) was > 300 µM. As for `Cc1ccc(C2=NN3[C@@H](C(=O)c4ccc(-c5ccccc5)cc4)Oc4ccc(Cl)cc4[C@H]3C2)cc1` [ZINC25558691], the IC50 against NDM-1 [2] (setting [9]) is > 1000 µM. `N[C@H](CN[C@H](CN[C@@H](CC(=O)O)C(=O)O)C(=O)O)C(=O)O` [aspergillomarasmine A]: the IC50 on NDM-1 [7] was 4 µM.

By MIC is commonly meant the least concentration at which growth counts as inhibited. A word on the IC50: it is the concentration that inhibits the measured activity by half. The term inhibition denotes the share of the control response that was lost under treatment. Usually Kd stands for the equilibrium constant for the complex coming apart. Read a high Kd as weaker binding.
